From publication PMC9352670 (2022)

Assays:
Experiment in all cases: microscale thermophoresis
[1] = tested on: Dm-reference-based-random-after-selection-4 (DNA, other, HFNAP: side-chain on 5' nucleobase of each coding trinucleotide, positions 19,22,25,...,61 (codon key Figure 1B)) GAAAGCAGGACTGGAGATCATCCTTCCTTATAGCATCGGCCGTTTCCGTTGCCATCCCCCCCACAGACCGAACTAGAGCTT; details: 5 mM KCl, 1 mM MgCl2, 1 mM CaCl2 added; HBS-P+ buffer, 25 °C
[2] = tested on: Dm-HS-1 CCG ∆ s.c. (DNA, aptamer, no side-chain at 40 (codon 8 CCG); others as HFNAP: fluorophenyl at 19; allylamine at 22, 25, 37; alcohol at 28, 34, 49; phenol at 31, 46; cyclopropyl at 43, 58; imidazole at 52, 55, 61) GAAAGCAGGACTGGAGATCGATTCTGGTGCTGTTGATCTCCGCCATTGTGCTCCTACCCTTCACAGACCGAACTAGAGCTT; details: 5 mM KCl, 1 mM MgCl2, 1 mM CaCl2 added to HBS-P+; HBS-P+ buffer, 25 °C
[3] = tested on: Dm-HS-3 ∆ s.c. (DNA, aptamer, none (no side-chains)) GAAAGCAGGACTGGAGATCGATTATTGTGATTTTGATCTCCTCCATATCCCCTTCCCTACTCGCAGACCGAACTAGAGCTT; details: 5 mM KCl, 1 mM MgCl2, 1 mM CaCl2 added; HBS-P+ buffer, 25 °C
[4] = tested on: Dm-CCS-5 (DNA, aptamer, HFNAP: side-chain on 5' nucleobase of each coding trinucleotide, positions 19,22,25,...,61 (codon key Figure 1B)) GAAAGCAGGACTGGAGATTTCTACTATCTCCAGCCGTTCCACCACTGATGCCCTTAGTATCCTCAGACCGAACTAGAGCTT; details: 5 mM KCl, 1 mM MgCl2, 1 mM CaCl2 added; HBS-P+ buffer, 25 °C
[5] = tested on: Dm-HS-8 ∆ s.c. (DNA, aptamer, none (no side-chains)) GAAAGCAGGACTGGAGATCGATTGCAGTTACGTCTCCCCTGCCCACCTTATTGCCATTCATAACAGACCGAACTAGAGCTT; details: 5 mM KCl, 1 mM MgCl2, 1 mM CaCl2 added; HBS-P+ buffer, 25 °C
[6] = tested on: Dm-LS-1 (DNA, aptamer, HFNAP: side-chain on 5' nucleobase of each coding trinucleotide, positions 19,22,25,...,61 (codon key Figure 1B)) GAAAGCAGGACTGGAGATCCGCGCCGCTTTTATCCCTAGTCCCTTTTACCCTACTTCCCCTTACAGACCGAACTAGAGCTT; details: 5 mM KCl, 1 mM MgCl2, 1 mM CaCl2 added; HBS-P+ buffer, 25 °C
[7] = tested on: Dm-HS-1 TCT ∆ s.c. (DNA, aptamer, no side-chain at 37 (codon 7 TCT); others as HFNAP: fluorophenyl at 19; allylamine at 22, 25; alcohol at 28, 34, 49; phenol at 31, 46; cyclopentyl at 40; cyclopropyl at 43, 58; imidazole at 52, 55, 61) GAAAGCAGGACTGGAGATCGATTCTGGTGCTGTTGATCTCCGCCATTGTGCTCCTACCCTTCACAGACCGAACTAGAGCTT; details: 5 mM KCl, 1 mM MgCl2, 1 mM CaCl2 added to HBS-P+; HBS-P+ buffer, 25 °C
[8] = tested on: Dm-CVAE-without-selection-1 (DNA, aptamer, HFNAP: side-chain on 5' nucleobase of each coding trinucleotide, positions 19,22,25,...,61 (codon key Figure 1B)) GAAAGCAGGACTGGAGATCCGCATCGCTTATGCTGATCTTTTCCATATTGCCTTTCCTCCTACCAGACCGAACTAGAGCTT; details: 5 mM KCl, 1 mM MgCl2, 1 mM CaCl2 added; HBS-P+ buffer, 25 °C
[9] = tested on: Dm-HS-1 (DNA, aptamer, HFNAP nucleobase side-chains: fluorophenyl at 19; allylamine at 22,25,37; alcohol at 28,34,49; phenol at 31,46; cyclopentyl at 40; cyclopropyl at 43,58; imidazole at 52,55,61) GAAAGCAGGACTGGAGATCGATTCTGGTGCTGTTGATCTCCGCCATTGTGCTCCTACCCTTCACAGACCGAACTAGAGCTT; details: 5 mM KCl, 1 mM MgCl2, 1 mM CaCl2 added; HBS-P+ buffer, 25 °C
[10] = tested on: Dm-HS-3 (DNA, aptamer, HFNAP: side-chain on 5' nucleobase of each coding trinucleotide, positions 19,22,25,...,61 (codon key Figure 1B)) GAAAGCAGGACTGGAGATCGATTATTGTGATTTTGATCTCCTCCATATCCCCTTCCCTACTCGCAGACCGAACTAGAGCTT; details: 5 mM KCl, 1 mM MgCl2, 1 mM CaCl2 added; HBS-P+ buffer, 25 °C
[11] = tested on: Dm-HS-10 (DNA, aptamer, HFNAP: side-chain on 5' nucleobase of each coding trinucleotide, positions 19,22,25,...,61 (codon key Figure 1B)) GAAAGCAGGACTGGAGATCCTTCGCATCGGCTTTCTCCCTGTCACCCCTGTTCCCCTTGACCGCAGACCGAACTAGAGCTT; details: 5 mM KCl, 1 mM MgCl2, 1 mM CaCl2 added; HBS-P+ buffer, 25 °C
[12] = tested on: Dm-HS-5 ∆ s.c. (DNA, aptamer, none (no side-chains)) GAAAGCAGGACTGGAGATCGATTCTGGTGCTGTTGATCTCCGCCATTGTGCTCCTGCCCTTCACAGACCGAACTAGAGCTT; details: 5 mM KCl, 1 mM MgCl2, 1 mM CaCl2 added; HBS-P+ buffer, 25 °C
[13] = tested on: Dm-HS-2 ∆ s.c. (DNA, aptamer, none (no side-chains)) GAAAGCAGGACTGGAGATCTATGGTCGCATCGTTGACCCTTGTCCTGCCCCTGTCTCTCTCAACAGACCGAACTAGAGCTT; details: 5 mM KCl, 1 mM MgCl2, 1 mM CaCl2 added; HBS-P+ buffer, 25 °C
[14] = tested on: Dm-CCS-4 (DNA, aptamer, HFNAP: side-chain on 5' nucleobase of each coding trinucleotide, positions 19,22,25,...,61 (codon key Figure 1B)) GAAAGCAGGACTGGAGATCGCTGACAGCGATCCCGACTGTGATCTTGCTGCTGCCTCTCGCGCCAGACCGAACTAGAGCTT; details: 5 mM KCl, 1 mM MgCl2, 1 mM CaCl2 added; HBS-P+ buffer, 25 °C
[15] = tested on: Dm-HS-6 ∆ s.c. (DNA, aptamer, none (no side-chains)) GAAAGCAGGACTGGAGATTGGTAGTAACTGCTGTCCTGCTAATCATGCCGTTCACGCTGACCTCAGACCGAACTAGAGCTT; details: 5 mM KCl, 1 mM MgCl2, 1 mM CaCl2 added; HBS-P+ buffer, 25 °C

For `COc1cccc2c1C(=O)c1c(O)c3c(c(O)c1C2=O)C[C@@](O)(C(C)=O)C[C@@H]3O[C@H]1C[C@H](N)[C@H](O)[C@H](C)O1`, the Kd [1] was 107.9 ± 6.9 µM, the Kd [2] was 21.9 ± 2.6 nM and the “Kd ∆ side-chains” value [3] was 4.45 ± 0.28 µM. For the same compound, the Kd [4] was 10.4 ± 1.5 nM, the “Kd ∆ side-chains” value [5] was 4.84 ± 0.26 µM and the Kd [6] was 1.11 ± 0.06 µM. The Kd [7] was 12.9 ± 1.5 nM, the Kd [8] was 13.2 ± 3.2 nM and the Kd [9] was 12.85 ± 1.6 nM. For the same compound, the Kd [10] was 4.78 ± 0.95 nM, the Kd [11] was 64.68 ± 3.9 nM and the “Kd ∆ side-chains” value [12] was 4.50 ± 0.21 µM. For the same compound, the “Kd ∆ side-chains” value [13] was 1.70 ± 0.17 µM, the Kd [14] was 8.5 ± 2.3 nM and the “Kd ∆ side-chains” value [15] was 1.51 ± 0.065 µM.
